Laboratory results from the supplement of paper PMC7600603.

Assays:
DLD1 NRF2-WT [1] = conditions: 72 h; CellTiter-Glo viability
Procedure, shortened: (§1)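 DLD1 colorectal cancer cells, an isogenic pair either NRF2 wild-type or carrying a CRISPR gain-of-function, were cultured in DMEM with 10% FBS and treated in 384-well plates with library compounds at 5 concentrations across a 10,000-fold range. CellTiter-Glo viability was read on a Pherastar FS reader after 72 h and normalised to vehicle wells and 100-μM positive-control wells. Four-parameter logistic dose-response fits were applied. EC50 and drug sensitivity score, a normalised area under the curve, were taken from these fits.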

DLD1 NRF2-GOF [2] = conditions: 72 h; CellTiter-Glo viability
Procedure, shortened: as §1

DLD1 NRF2-WT [3] = test: drug sensitivity score (DSS) cytotoxicity (DSS score); higher = more toxic; extreme values may be limits of the assay; conditions: 72 h; CellTox Green cytotoxicity
Procedure, shortened: (§2)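 After growth in DMEM with 10% FBS, NRF2 wild-type and CRISPR-edited isogenic DLD1 cells were seeded in 384-well plates and given library compounds at 5 concentrations across a 10,000-fold range. Fluorescence from CellTox Green was taken on a Pherastar FS reader after 72 h and normalised against vehicle wells and 100-μM positive-control wells. From logistic dose-response fits of cytotoxicity came the TC50 and the drug sensitivity score, a normalised area under the curve.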

DLD1 NRF2-GOF [4] = test: as above; conditions: 72 h; CellTox Green cytotoxicity
Procedure, shortened: as §2

DLD1 NRF2-WT [5] = test: drug sensitivity score (DSS) viability (DSS score); higher = more sensitive; extreme values may be limits of the assay; conditions: 72 h; CellTiter-Glo viability
Procedure, shortened: as §1

DLD1 NRF2-GOF [6] = test: as above; conditions: 72 h; CellTiter-Glo viability
Procedure, shortened: as §1

DLD1 NRF2-WT [7] = test: TC50 cytotoxicity; higher = less toxic; conditions: 72 h; CellTox Green cytotoxicity
Procedure, shortened: as §2

DLD1 NRF2-GOF [8] = test: TC50 cytotoxicity; higher = less toxic; conditions: 72 h; CellTox Green cytotoxicity
Procedure, shortened: as §2

Structure (SMILES)	EC50 viability (DLD1 NRF2-WT [1])	EC50 viability (DLD1 NRF2-GOF [2])	drug sensitivity score (DLD1 NRF2-WT [3])	drug sensitivity score (DLD1 NRF2-GOF [4])	drug sensitivity score (DLD1 NRF2-WT [5])	drug sensitivity score (DLD1 NRF2-GOF [6])	TC50 cytotoxicity (DLD1 NRF2-WT [7])	TC50 cytotoxicity (DLD1 NRF2-GOF [8])
O=C(/C=C/c1cccnc1)NCCCCC1CCN(C(=O)c2ccccc2)CC1 [Daporinad]	4 nM	4.9 nM	0	0	27.6	25.9	> 1000 nM	> 1000 nM
CCN(CC)CCN(Cc1ccc(-c2ccc(C(F)(F)F)cc2)cc1)C(=O)Cn1c(SCc2ccc(F)cc2)nc(=O)c2c1CCC2 [Darapladib]	> 1000 nM	> 1000 nM	0	0	0	4.1	> 1000 nM	> 1000 nM
CC[C@@](C)(Nc1ccnc(-c2c[nH]c3ncccc23)n1)C(=O)NCC(F)(F)F [Decernotinib]	> 10000 nM	> 10000 nM	0	0	0	0	> 10000 nM	> 10000 nM
CC(=O)N(O)CCCCCNC(=O)CCC(=O)N(O)CCCCCNC(=O)CCC(=O)N(O)CCCCCN [Deferoxamine]	3250 nM	2010 nM	0	0	4.8	7	> 10000 nM	> 10000 nM
C[C@H]1O[C@@H](O[C@H]2[C@@H](O)C[C@H](O[C@H]3[C@@H](O)C[C@H](O[C@H]4CC[C@@]5(C)[C@H](CC[C@@H]6[C@@H]5C[C@@H](O)[C@]5(C)[C@@H](C7=CC(=O)OC7)CC[C@]65O)C4)O[C@@H]3C)O[C@@H]2C)C[C@H](O)[C@@H]1O [Digoxin]	47.3 nM	24.5 nM	4.3	4.6	15.8	18.8	326 nM	218 nM
CCc1cnn2c(NCc3ccc[n+]([O-])c3)cc(N3CCCC[C@H]3CCO)nc12 [Dinaciclib]	3.4 nM	9.6 nM	3.3	0	27.5	21	> 1000 nM	> 1000 nM
CCN(CC)C(=S)SSC(=S)N(CC)CC [Disulfiram(+CuCl2)]	> 50000 nM	> 50000 nM	0	0	0.1	0.1	> 50000 nM	> 50000 nM
Cc1ccc(-n2nc(C(C)(C)C)cc2NC(=O)Nc2ccc(OCCN3CCOCC3)c3ccccc23)cc1 [Doramapimod]	> 10000 nM	> 10000 nM	0	0	0	0	> 10000 nM	> 10000 nM
COc1cccc2c1C(=O)c1c(O)c3c(c(O)c1C2=O)C[C@@](O)(C(=O)CO)C[C@@H]3O[C@H]1C[C@H](N)[C@H](O)[C@H](C)O1 [Doxorubicin]	168 nM	138 nM	0	0	8.1	9.2	> 1000 nM	> 1000 nM
Cc1ccc(NS(=O)(=O)c2cccc(C#N)c2)c2[nH]cc(C#N)c12 [E7820]	531 nM	202 nM	0	0	15.3	22.9	> 50000 nM	> 50000 nM
Cc1cc(C)c(CNC(=O)c2cc(-c3ccc(CN4CCOCC4)cc3)cc3c2cnn3C2CCCC2)c(=O)[nH]1 [EPZ-5687]	> 10000 nM	1680 nM	0	0	3.3	3.2	> 10000 nM	> 10000 nM
COC(=O)N[C@@H](C)CNc1nccc(-c2cn(C(C)C)nc2-c2cc(Cl)cc(NS(C)(=O)=O)c2F)n1 [Encorafenib]	412 nM	387 nM	0	0	1.1	1.3	> 1000 nM	> 1000 nM
C[C@@H]1CN(C(=O)c2ccc(NC(=O)c3cc(O[C@H](C)c4c(Cl)ccc(F)c4Cl)c(N)nn3)cc2)C[C@H](C)N1 [Ensartinib]	> 1000 nM	> 1000 nM	0.3	0.2	0	0.1	> 1000 nM	> 1000 nM
Nc1ccccc1NC(=O)c1ccc(CNC(=O)OCc2cccnc2)cc1 [Entinostat]	> 10000 nM	> 10000 nM	0	0	0	0	> 10000 nM	> 10000 nM
c1cn2cc(-c3ccc4cn[nH]c4c3)nc(Nc3ccc(N4CCOCC4)cc3)c2n1 [Entospletinib]	> 5000 nM	> 5000 nM	0	0	0	0	> 5000 nM	> 5000 nM
CNC(=O)c1ccc(N2C(=S)N(c3ccc(C#N)c(C(F)(F)F)c3)C(=O)C2(C)C)cc1F [Enzalutamide]	> 10000 nM	> 10000 nM	0	0	0.5	0.1	> 10000 nM	> 10000 nM
Cn1cc(C2=C(c3cn(C4CCN(Cc5ccccn5)CC4)c4ccccc34)C(=O)NC2=O)c2ccccc21 [Enzastaurin]	> 10000 nM	> 10000 nM	0	0	0	0	> 10000 nM	> 10000 nM
NS(=O)(=O)NCCNc1nonc1/C(=N/O)Nc1ccc(F)c(Br)c1 [Epacadostat]	1670 nM	1750 nM	0	0	3.8	3.2	> 10000 nM	> 10000 nM
CCOc1ccccc1-n1c(C(C)N2CCN(C(=O)COc3ccc(Cl)cc3)CC2)nc2ccccc2c1=O (stereo not drawn) [Erastin]	> 10000 nM	> 10000 nM	0	0	0	0	> 10000 nM	> 10000 nM
COc1cc(OC)cc(N(CCNC(C)C)c2ccc3ncc(-c4cnn(C)c4)nc3c2)c1 [Erdafitinib]	42.1 nM	133 nM	0	0	5.9	6	> 1000 nM	> 1000 nM
C#Cc1cccc(Nc2ncnc3cc(OCCOC)c(OCCOC)cc23)c1 [Erlotinib]	321 nM	3540 nM	0	0	6.9	1.3	> 10000 nM	> 10000 nM
